Measurements published in DBAASP.
In brackets after ≈: the same amount, converted by molar mass.

Columns and labels:
Test in all cases: ≥ marks a high value that may be exact or a test limit, other limits are often not marked, values filed in µg/mL are converted to µM
[1] = tested on: Aeromonas sobria 090223
[2] = tested on: Staphylococcus aureus 090223
[3] = tested on: Klebsiella pneumoniae
[4] = tested on: Proteus mirabilis 090223
[5] = tested on: Stenotrophomonas maltophilia 090223
[6] = tested on: Escherichia coli 1342
[7] = tested on: Staphylococcus aureus 1349
[8] = tested on: Candida albicans ATCC 2002
[9] = tested on: Nocardia asteroides 090312
[10] = tested on: Acinetobacter baumannii
[11] = tested on: Escherichia coli ATCC 25922
[12] = tested on: Enterococcus faecium 1299
[13] = tested on: Candida glabrata 0902
[14] = tested on: Staphylococcus aureus ATCC 2592
[15] = tested on: Stenotrophomonas maltophilia CUN 3998-00
[16] = tested on: Acinetobacter baumannii ATCC 19606
[17] = tested on: Staphylococcus aureus ATCC 43300
[18] = tested on: Staphylococcus aureus ATCC 25923
[19] = tested on: Pseudomonas aeruginosa ATCC 27853
[20] = tested on: Pseudomonas aeruginosa CUN 4158-02
[21] = tested on: Bordetella bronchiseptica CUN 11844-99
[22] = tested on: Staphylococcus aureus CUN 3792-99
[23] = tested on: Escherichia coli ATCC 28922
[24] = tested on: Pseudomonas aeruginosa ATCC 9027
[25] = tested on: Citrobacter freundii ATCC 8090
[26] = tested on: Agrobacterium tumefaciens GV3101
[27] = tested on: Xanthomonas citri
[28] = tested on: Methylobacterium sp.
[29] = tested on: Escherichia coli D31
[30] = tested on: Bacillus megaterium
[31] = tested on: Staphylococcus saprophyticus
[32] = tested on: Staphylococcus epidermidis
[33] = tested on: Haemophilus Influenzae
[34] = tested on: Pseudomonas aeruginosa
[35] = tested on: Enterobacter cloacae
[36] = tested on: Klebsiella aerogenes
[37] = tested on: Vibrio alginolyticus
[38] = tested on: Salmonella typhimurium
[39] = tested on: Aeromonas hydrophila
[40] = tested on: Staphylococcus haemolyticus
[41] = tested on: Dermacoccus nishinomiyaensis
[42] = tested on: Alcaligenes faecalis
[43] = tested on: Staphylococcus aureus
[44] = tested on: Micrococcus luteus IFO 12708

CC[C@H](C)[C@@H]1NC(=O)[C@H](CC(C)C)NC(=O)[C@@H](NC(=O)[C@H](Cc2ccccc2)NC(=O)[C@H](CC(C)C)NC(=O)[C@H](CO)NC(=O)[C@@H]2CCCN2C(=O)[C@H](CC(C)C)NC(=O)[C@H](CCCN=C(N)N)NC(=O)[C@H](CCCCN)NC(=O)[C@@H](NC(=O)[C@@H](NC(=O)[C@H](C)NC(=O)CNC(=O)[C@H](CC(C)C)NC(=O)[C@H](C)NC(=O)[C@@H](N)Cc2ccccc2)C(C)C)[C@@H](C)O)CSSC[C@@H](C(=O)O)NC(=O)[C@H](CCCCN)NC(=O)[C@H](CCCN=C(N)N)NC(=O)[C@H]([C@@H](C)O)NC1=O [FALGAVTKRLPSLFCLITRKC]
MIC [1]: 4.02 µM (≈ 9.39 µg/mL)
MIC [2]: 0.984 µM (≈ 2.3 µg/mL)
MIC [3]: > 42.8 µM
MIC [4]: 4.02 µM (≈ 9.39 µg/mL)
MIC [5]: 2.01 µM (≈ 4.7 µg/mL)
MIC [6]: 2.01 µM (≈ 4.7 µg/mL)
MIC [7]: 8.04 µM (≈ 18.8 µg/mL)
MIC [8]: 0.984 µM (≈ 2.3 µg/mL)
MIC [9]: 8.04 µM (≈ 18.8 µg/mL)
MIC [10]: 5.69 µM (≈ 13.3 µg/mL)
MIC [11]: 8.04 µM (≈ 18.8 µg/mL)
MIC [12]: 2.01 µM (≈ 4.7 µg/mL)
MIC [13]: 16 µM (≈ 37.5 µg/mL)
MIC [14]: 8.04 µM (≈ 18.8 µg/mL)

NCCCC[C@H](NC(=O)CNC(=O)[C@H](CCCN=C(N)N)NC(=O)[C@H](Cc1ccc(O)cc1)NC(=O)[C@H](CCCN=C(N)N)NC(=O)[C@H](Cc1c[nH]c2ccccc12)NC(=O)[C@H](CCCN=C(N)N)NC(=O)[C@H](Cc1ccccc1)NC(=O)[C@H](CCCCN)NC(=O)[C@H](CCCCN)NC(=O)[C@H](Cc1c[nH]c2ccccc12)NC(=O)[C@H](CCCN=C(N)N)NC(=O)[C@H](CCCN=C(N)N)NC(=O)[C@H](CS)NC(=O)CN)C(=O)N[C@@H](Cc1ccccc1)C(=O)N[C@@H](Cc1c[nH]c2ccccc12)C(=O)N[C@@H](Cc1ccccc1)C(=O)N[C@@H](Cc1c[nH]c2ccccc12)C(=O)N[C@@H](CS)C(=O)NCC(N)=O [GCRRWKKFRWRYRGKFWFWCG]
MIC [15]: 22 µM (≈ 64 µg/mL)
MIC [16]: 22 µM (≈ 64 µg/mL)
MIC [17]: 11 µM (≈ 32 µg/mL)
MIC [18]: 22 µM (≈ 64 µg/mL)
MIC [19]: 44 µM (≈ 128 µg/mL)
MIC [20]: ≥ 44 µM
MIC [21]: 11 µM (≈ 32 µg/mL)
MIC [11]: 44 µM (≈ 128 µg/mL)
MIC [22]: 22 µM (≈ 64 µg/mL)

CC(C)C[C@H](NC(=O)[C@H](CC(C)C)NC(=O)CNC(=O)CNC(=O)CNC(=O)CNC(=O)CNC(=O)CNC(=O)CNC(=O)CNC(=O)CNC(=O)[C@H](CC(C)C)NC(=O)[C@H](CC(C)C)NC(=O)[C@@H]1CCCN1C(=O)CNC(=O)[C@H](CC(C)C)NC(=O)[C@H](CC(C)C)NC(=O)CNC(=O)CNC(=O)[C@H](CC(C)C)NC(=O)[C@H](CC(C)C)NC(=O)CN)C(=O)O [GLLGGLLGPLLGGGGGGGGGLL]
MIC [23]: ≥ 50 µM
MIC [24]: 8 µM (≈ 14.1 µg/mL)
MIC [25]: ≥ 75 µM

CC[C@H](C)[C@H](N)C(=O)N[C@@H](Cc1ccccc1)C(=O)NCC(=O)N[C@@H](C)C(=O)N[C@H](C(=O)N[C@@H](CC(C)C)C(=O)N1CCC[C@H]1C(=O)N[C@@H](CC(C)C)C(=O)N[C@@H](C)C(=O)N[C@@H](CC(C)C)C(=O)NCC(=O)N[C@@H](C)C(=O)N[C@@H](CC(C)C)C(=O)N[C@@H](CCCCN)C(=O)N[C@@H](CC(N)=O)C(=O)N[C@@H](CC(C)C)C(=O)N[C@H](C(=O)N[C@@H](CCCCN)C(=O)O)[C@@H](C)CC)[C@@H](C)CC [IFGAILPLALGALKNLIK]
MIC [26]: 17 µM (≈ 31.7 µg/mL)
MIC [27]: 4 µM (≈ 7.46 µg/mL)
MIC [28]: 9 µM (≈ 16.8 µg/mL)

CC(C)C[C@H](NC(=O)[C@H](Cc1c[nH]c2ccccc12)NC(=O)[C@H](C)NC(=O)CNC(=O)[C@@H](N)CC(C)C)C(=O)N[C@@H](C)C(=O)NCC(=O)N[C@@H](CCCCN)C(=O)N[C@H](C(=O)N[C@@H](C)C(=O)NCC(=O)N[C@H](C(=O)N[C@H](C(=O)N[C@@H](C)C(=O)N[C@H](C(=O)N[C@@H](Cc1ccc(O)cc1)C(=O)N[C@@H](C)C(=O)N[C@@H](Cc1c[nH]c2ccccc12)C(=O)N[C@@H](CC(N)=O)C(=O)N[C@@H](CCCN=C(N)N)C(=O)N[C@@H](Cc1ccc(O)cc1)C(=O)N[C@H](C(N)=O)C(C)C)[C@@H](C)O)C(C)C)[C@@H](C)O)C(C)C [LGAWLAGKVAGTVATYAWNRYV]
MIC [29]: 25 µM (≈ 59.2 µg/mL)
MIC [30]: 25 µM (≈ 59.2 µg/mL)
MIC [31]: 4.24 µM (≈ 10 µg/mL)
MIC [32]: 4.24 µM (≈ 10 µg/mL)
MIC [33]: 25 µM (≈ 59.2 µg/mL)
MIC [34]: > 25 µM
MIC [35]: 25 µM (≈ 59.2 µg/mL)
MIC [36]: 25 µM (≈ 59.2 µg/mL)
MIC [37]: 1.13 µM (≈ 2.68 µg/mL)
MIC [38]: 25 µM (≈ 59.2 µg/mL)
MIC [39]: 25 µM (≈ 59.2 µg/mL)
MIC [10]: 25 µM (≈ 59.2 µg/mL)
MIC [40]: 4.24 µM (≈ 10 µg/mL)
MIC [41]: 0.566 µM (≈ 1.34 µg/mL)
MIC [42]: 25 µM (≈ 59.2 µg/mL)
MIC [43]: 4.24 µM (≈ 10 µg/mL)
MIC [44]: 0.566 µM (≈ 1.34 µg/mL)
